Data published in patent US20100069382A1, “Agent for prophylaxis or treatment of alcohol dependence or drug dependence” (priority 2006, published 2010).
Where two headings read alike, the source gives them in different places.

Legend:
Wistar rats = experiment: Effect on alcohol withdrawal symptoms in Wistar rats; type: in vivo, rat
Experimental: Male Wistar rats were used in this study. According to the protocol shown in FIG. 1, rats were orally given 12-15 g/kg/body weight of ethanol in 24 hours on day 1 to day 2 and 9-10 g/kg/body weight of ethanol in 12 hours on day 3 to day 5. Compound A was administered p.o. at doses of 0.3 and 1 mg/kg/body weight twice after 2 and 7 hours of last ethanol administration. Four types of alcohol withdrawal symptoms such as vocalization, ventromedial limb retraction, tail rigidity, tail tremors were observed and scored with following 3 rating scales: mild=0, moderate=1, severe=2.

msP rats [1] = experiment: Effect on alcohol intake in msP rats; type: in vivo, rat
Experimental: Male genetically selected alcohol-preferring rats known as Marchigian Sardinian alcohol-preferring (msP) rats were used in this study (Addiction Biol. 11, 339-355, 2006). […] Compound A at doses of 0.3 and 1 mg/kg/body weight was orally administered twice for 9 days at 1 hour before and 8 hours after onset of dark period.

msP rats [2] = experiment: Yohimbine-induced reinstatement of alcohol-seeking behavior in msP rats; type: in vivo, rat
Excerpt: Male genetically selected alcohol-preferring rats known as msP rats were used in this study (Addiction Biol. 11, 339-355, 2006). […] After acquisition of a stable baseline of 10% ethanol self-administration, rats were subjected to 30-min extinction sessions for 15 consecutive days. Extinction sessions were identical to 10% ethanol self-administration sessions, however alcohol was no longer available. Beginning on extinction day 10, rats were divided into three groups with similar baseline levels of responding for 10% ethanol. For six consecutive days, 1 hour before the self-administration session and 8 hours later, each group of rats were orally given vehicle, 0.3 mg/kg of Compound A or 1.0 mg/kg of Compound A. After the extinction sessions, rats were given yohimbine (1,25 mg/kg, i.p.) 35 min before the test sessions. The 30-min reinstatement test was conducted under extinction condition.
Yohimbine was used as stressor for this study, because yohimbine is known to produce stress and anxiety-like states in both humans and non-humans (Bremner et al, 1996; Charney et al 1983; Holmberg et al 1963).

msP rats [3] = experiment: Study on dependence elicitation (conditioned place preference) in msP rats; type: in vivo, rat
Experimental: A two-compartment box divided by guillotine door was used. […] For the following 6 days, the rats were treated on alternate days with three Compound A-pairing administrations (0.3 and 1.0 mg/kg/body weight, p.o.) and three vehicle-pairing administrations immediately before being placed, for 1 hour, into the assigned chamber with guillotine door close for drug-compartment discrimination (conditioning). The day after the last conditioning session, the rats were placed, for 15 min, in the box with door open. The time spent in the drug paired compartment was measured.

[4] = existing medicines, known profile, cited from earlier work
[5] = Economidou et al., Peptides 27, 3299-3306, 2006, cited from earlier work
[6] = 0.3 and 1 mg/kg/body weight p.o. twice, 2 and 7 hours after last ethanol, observed 8 to 24 hours after last ethanol administration, FIG. 2

Question: With `CNC(=O)Cn1c(=O)n(C2CCN([C@@H]3Cc4cccc5cccc3c45)CC2)c2ccccc21` [Compound A, (R)-2-{3-[1-(acenaphthen-1-yl)piperidin-4-yl]-2,3-dihydro-2-oxo-benzimidazol-1-yl}-N-methylacetamide] as the compound, how does the “score of tail rigidity (alcohol withdrawal symptom)” value (Wistar rats; [6]) read?
Answer: significantly and dose-dependently decreased

Question: And the “score of tail tremors (alcohol withdrawal symptom)” value (Wistar rats; [6])?
Answer: significantly and dose-dependently decreased

Question: What about the “score of ventromedial limb retraction (alcohol withdrawal symptom)” value (Wistar rats; [6]) of the same compound?
Answer: significantly and dose-dependently decreased

Question: And the “Ameliorative effect on alcohol withdrawal symptoms” value (“Ameliorative effect” below) (Wistar rats; Table 1 summary, Compound A)?
Answer: yes

Question: What about the ethanol consumption (msP rats [1]; 0.3 and 1 mg/kg/body weight orally twice daily for 9 days, free choice water / 10% ethanol, FIG. 4) of the same compound?
Answer: significantly and dose-dependently decreased

Question: And the “Suppressive effect on excessive alcohol intake” value (msP rats [1]; Table 1 summary, Compound A)?
Answer: yes

Question: And the “duration of significant decrease of ethanol consumption after withdrawal of Compound A” value (msP rats [1]; after 9 days of oral dosing at 0.3 and 1 mg/kg/body weight, FIG. 4)?
Answer: 9 days

Question: And the “yohimbine stress-induced reinstatement of alcohol-seeking behavior” value (msP rats [2]; 1 mg/kg orally twice daily for six days, yohimbine 1,25 mg/kg i.p., FIG. 6)?
Answer: significantly attenuated

Question: What about the “Suppressive effect on stress-induced reinstatement” value (msP rats [2]; Table 1 summary, Compound A) of the same compound?
Answer: yes

Question: What about the “place preference (time spent in drug paired compartment)” value (msP rats [3]; 0.3 and 1.0 mg/kg/body weight p.o., three pairings, FIG. 8) of the same compound?
Answer: induced place preference at neither 0.3 nor 1 mg/kg/body weight

Question: And the Presence/absence of dependence (msP rats [3]; Table 1 summary, Compound A)?
Answer: absent

Question: What about the “dependence elicitation by the compound itself” value (msP rats [3]; conclusion from conditioned place preference at 0.3 and 1 mg/kg/body weight) of the same compound?
Answer: does not elicit dependence

Question: What does the source list for `CN1C(=O)CN=C(c2ccccc2)c2cc(Cl)ccc21` [Diazepam]?
Answer: Ameliorative effect on alcohol withdrawal symptoms [4]: yes; Presence/absence of dependence [4]: present; Suppressive effect on excessive alcohol intake [4]: none; Suppressive effect on stress-induced reinstatement [4]: none; Presence/absence of dependence ([4]; listed as diazepam): induce dependence

Question: For `O=C1NCN(c2ccccc2)C12CCN([C@@H]1CC[C@H]3CCCc4cccc1c43)CC2` [Ro64-6198], which alcohol drinking [5] is on record?
Answer: failed to decrease alcohol drinking

Question: What about the “alcohol drinking at high dose” value ([5]; high dose) of the same compound?
Answer: increase

Question: What does the source list for `Clc1cccc(Cl)c1N=C1NCCN1` [Clonidine]?
Answer: Ameliorative effect on alcohol withdrawal symptoms [4]: yes; Presence/absence of dependence [4]: absent; Suppressive effect on excessive alcohol intake [4]: none; Suppressive effect on stress-induced reinstatement [4]: none; Ameliorative effect on alcohol withdrawal symptoms ([4]; listed as clonidine): effective; Suppressive effect on excessive alcohol intake ([4]; listed as clonidine): ineffective; Suppressive effect on stress-induced reinstatement ([4]; listed as clonidine): ineffective

Question: With `O=C1CC[C@@]2(O)[C@H]3Cc4ccc(O)c5c4[C@@]2(CCN3CC2CC2)[C@H]1O5` [Naltrexone] as the compound, how does the “Ameliorative effect” value [4] read?
Answer: none

Question: What about the Presence/absence of dependence [4] of the same compound?
Answer: absent

Question: And the “Suppressive effect on excessive alcohol intake” value [4]?
Answer: yes

Question: And the “Suppressive effect on stress-induced reinstatement” value [4]?
Answer: none

Question: And the “Ameliorative effect” value ([4]; listed as naltrexone)?
Answer: ineffective

Question: What about the “Suppressive effect on excessive alcohol intake” value ([4]; listed as naltrexone) of the same compound?
Answer: effective

Question: And the “Suppressive effect on stress-induced reinstatement” value ([4]; listed as naltrexone)?
Answer: ineffective

Question: Which “Ameliorative effect” value [4] does the source give for `CC(=O)NCCCS(=O)(=O)O` [Acamprosate] here?
Answer: none

Question: What about the Presence/absence of dependence [4] of the same compound?
Answer: absent

Question: And the “Suppressive effect on excessive alcohol intake” value [4]?
Answer: yes

Question: And the “Suppressive effect on stress-induced reinstatement” value [4]?
Answer: none

Question: What about the “Ameliorative effect” value ([4]; listed as acamprosate) of the same compound?
Answer: ineffective

Question: What about the “Suppressive effect on excessive alcohol intake” value ([4]; listed as acamprosate) of the same compound?
Answer: effective

Question: And the “Suppressive effect on stress-induced reinstatement” value ([4]; listed as acamprosate)?
Answer: ineffective
